Experimental findings from patent publication US8716284B2, “Adamantyl diamide derivatives and uses of same” (H. Lundbeck A/S, priority 2008, dated 2014) are described below.

The structures appear in SMILES notation.

T1 sequence (P31424 21-1171 isoform P31424-2 limits assumed): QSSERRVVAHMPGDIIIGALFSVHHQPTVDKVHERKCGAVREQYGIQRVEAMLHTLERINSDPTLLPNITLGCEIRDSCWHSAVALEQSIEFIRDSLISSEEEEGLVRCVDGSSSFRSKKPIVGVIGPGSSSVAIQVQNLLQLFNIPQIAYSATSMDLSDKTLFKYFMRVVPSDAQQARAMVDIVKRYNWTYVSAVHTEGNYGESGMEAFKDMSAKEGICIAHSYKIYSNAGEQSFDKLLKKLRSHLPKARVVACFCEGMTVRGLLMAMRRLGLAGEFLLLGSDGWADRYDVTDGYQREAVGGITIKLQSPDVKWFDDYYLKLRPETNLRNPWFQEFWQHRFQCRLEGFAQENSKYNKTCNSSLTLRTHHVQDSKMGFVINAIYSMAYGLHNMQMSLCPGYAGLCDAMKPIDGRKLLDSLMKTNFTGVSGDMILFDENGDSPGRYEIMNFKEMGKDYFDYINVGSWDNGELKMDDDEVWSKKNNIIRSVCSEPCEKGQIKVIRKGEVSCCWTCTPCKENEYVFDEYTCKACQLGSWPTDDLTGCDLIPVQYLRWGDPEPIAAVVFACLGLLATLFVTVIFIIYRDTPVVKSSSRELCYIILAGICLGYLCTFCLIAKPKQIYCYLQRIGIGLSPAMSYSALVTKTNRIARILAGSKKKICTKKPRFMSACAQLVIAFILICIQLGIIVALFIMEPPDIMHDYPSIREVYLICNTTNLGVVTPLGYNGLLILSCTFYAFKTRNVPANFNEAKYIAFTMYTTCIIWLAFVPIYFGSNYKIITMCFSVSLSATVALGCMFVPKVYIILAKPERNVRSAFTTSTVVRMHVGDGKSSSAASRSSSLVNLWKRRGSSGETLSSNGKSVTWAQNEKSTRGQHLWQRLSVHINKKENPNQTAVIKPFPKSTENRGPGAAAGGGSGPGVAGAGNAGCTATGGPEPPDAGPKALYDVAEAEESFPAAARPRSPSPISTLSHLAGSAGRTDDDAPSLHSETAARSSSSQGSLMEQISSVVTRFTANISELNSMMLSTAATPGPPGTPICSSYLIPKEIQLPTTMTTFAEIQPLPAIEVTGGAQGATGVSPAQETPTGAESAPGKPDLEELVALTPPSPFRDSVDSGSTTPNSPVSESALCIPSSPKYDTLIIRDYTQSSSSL

This assay concerns the target T1, rat metabotropic glutamate receptor 5 (mGluR5) (Rattus norvegicus, UniProt P31424).
T1 construct: expressed in transfected cells; host or cells: HEK 293
Description: Calcium mobilization assay (FLIPR) for negative or positive allosteric activity, HEK 293 cells. As to conditions: HEK293, negative allosteric modulation, inhibition of EC80 glutamate response; read-out: FLIPR maximum inhibition. It counts as cell-based. Here is the method:
The cDNA for rat metabotropic glutamate receptor 5 (mGluR5) was a generous gift from S. Nakanishi (Kyoto University, Kyoto, Japan). The mGluR5 was stably expressed in a HEK 293 cell line and grown in Dulbecco's Modified Eagle Medium (DMEM) (Invitrogen, Carlsbad, Calif.) with supplements (10% bovine calf serum, 4 mM glutamine, 100 units/mL penicillin, 100 μg/mL streptomycin and 0.75 mM G1418) at 37° C., 5% CO2. Twenty-four hours prior to assay, cells were seeded into 384-well black wall microtiter plates coated with poly-D-lysine. Just prior to assay, media was aspirated and cells dye-loaded (25 μL/well) with 3 μM Fluo-4/0.01% pluronic acid in assay buffer (Hank's Balanced Saline Solution (HBSS)): 150 mM NaCl, 5 mM KCl, 1 mM CaCl2, 1 mM MgCl2, plus 20 mM N-2-Hydroxyethylpiperazine-N′-2-ethanesulfonic acid (HEPES), pH 7.4, 0.1% bovine serum albumin (BSA) and 2.5 mM probenicid) for 1 hour in 5% CO2 at 37° C. After excess dye was discarded, cells were washed in assay buffer and layered with a final volume equal to 30 μL/well. Basal fluorescence is monitored in a fluorometric imaging plate reader (FLIPR) (Molecular Devices, Sunnyvale, Calif.) with an excitation wavelength of 488 nm and an emission range of 500 to 560 nm. Laser excitation energy was adjusted so that basal fluorescence readings were approximately 10,000 relative fluorescent units. Cells were stimulated with an EC20 or an EC80 concentration of glutamate in the presence of a compound to be tested, both diluted in assay buffer, and relative fluorescent units were measured at defined intervals (exposure=0.6 sec) over a 3 min period at room temperature. Basal readings derived from negative controls were subtracted from all samples. Maximum change in fluorescence was calculated for each well. Concentration-response curves derived from the maximum change in fluorescence were analyzed by nonlinear regression (Hill equation). A negative modulator can be identified from these concentration-response curves if a compound produces a concentration dependent inhibition of the EC80 glutamate response. […] Examples 11-163 also were tested in the above assay.
A positive modulator can be identified from these concentration-response curves if a compound produces a concentration dependent increase in the EC20 glutamate response.
Background: Calcium assays in cells follow changes in intracellular calcium, usually with a dye or a luminescent sensor.
As to `CN(C)CCNc1cccc(C(=O)NC23CC4CC(CC(NC(=O)c5cccc(F)c5)(C4)C2)C3)n1` [Example 242, 6-(2-Dimethylamino-ethylamino)-pyridine-2-carboxylic acid [3-(3-fluoro-benzoylamino)-adamantan-1-yl]-amide], the Emax was 63 to 99%.
The same measure for `Cc1cccc(C(=O)NC23CC4CC(C2)CC(NC(=O)c2nc5ccccc5s2)(C4)C3)n1` [Example 36, Benzothiazole-2-carboxylic acid {3-[(6-methyl-pyridine-2-carbonyl)-amino]-adamantan-1-yl}-amide]: 63 to 99%; for `Cc1cccc(C(=O)NC23CC4CC(C2)CC(NC(=O)c2ccc5cnccc5n2)(C4)C3)n1` [Example 123, [1,6]Naphthyridine-2-carboxylic acid {3-[(6-methyl-pyridine-2-carbonyl)-amino]-adamantan-1-yl}-amide]: 70 to 99%; for `O=C(NC12CC3CC(C1)CC(NC(=O)c1cccc(NCCCO)n1)(C3)C2)c1ccccn1` [Example 203, 6-(3-Hydroxy-propylamino)-pyridine-2-carboxylic acid {3-[(pyridine-2-carbonyl)-amino]-adamantan-1-yl}-amide]: 63 to 99%.
The result for `Cc1cccc(C(=O)NC23CC4CC(C2)CC(NC(=O)c2cccc(N(C)CCCN(C)C)n2)(C4)C3)n1` [Example 233, 6-[(3-Dimethylamino-propyl)-methyl-amino]-pyridine-2-carboxylic acid {3-[(6-methyl-pyridine-2-carbonyl)-amino]-adamantan-1-yl}-amide] reads 63 to 99%.
The same measure for `O=C(NC12CC3CC(C1)CC(NC(=O)c1ccno1)(C3)C2)c1ccccn1` [Example 77, Pyridine-2-carboxylic acid {3-[(isoxazole-5-carbonyl)-amino]-adamantan-1-yl}-amide]: 63 to 99%.
As for `Cn1ccc(C(=O)NC23CC4CC(CC(NC(=O)c5ccccn5)(C4)C2)C3)n1` [Example 76, Pyridine-2-carboxylic acid {3-[(1-methyl-1H-pyrazole-3-carbonyl)-amino]-adamantan-1-yl}-amide], the Emax lay within 63 to 99%.
Turning to `Cc1ccc2nc(C(=O)NC34CC5CC(CC(NC(=O)c6cccc(F)c6)(C5)C3)C4)cn2c1` [Example 102, 6-Methyl-imidazo[1,2-a]pyridine-2-carboxylic acid [3-(3-fluoro-benzoylamino)-adamantan-1-yl]-amide], the Emax was in the range of 63 to 99%.
The same measure for `O=C(NC12CC3CC(C1)CC(NC(=O)c1cccc(N4CCC(O)C4)n1)(C3)C2)c1ccccn1` (stereo not drawn) [Example 201, 6-(3-Hydroxy-pyrrolidin-1-yl)-pyridine-2-carboxylic acid {3-[(pyridine-2-carbonyl)-amino]-adamantan-1-yl}-amide]: 63 to 99%; for `COCCCNc1cccc(C(=O)NC23CC4CC(CC(NC(=O)c5cccc(F)c5)(C4)C2)C3)n1` [Example 241, 6-(3-Methoxy-propylamino)-pyridine-2-carboxylic acid [3-(3-fluoro-benzoylamino)-adamantan-1-yl]-amide]: 63 to 99%.
On to `Cc1cccc(C(=O)NC23CC4CC(C2)CC(NC(=O)c2cccc(N5CCC[C@H]5C(N)=O)n2)(C4)C3)n1` [Example 239, 6-((S)-2-Carbamoyl-pyrrolidin-1-yl)-pyridine-2-carboxylic acid {3-[(6-methyl-pyridine-2-carbonyl)-amino]-adamantan-1-yl}-amide], for which the Emax fell in the range of 63 to 99%.
The result for `Cc1cccc(C(=O)NC23CC4CC(C2)CC(NC(=O)c2ncccc2F)(C4)C3)n1` [Example 129, 6-Methyl-pyridine-2-carboxylic acid {3-[(3-fluoro-pyridine-2-carbonyl)-amino]-adamantan-1-yl}-amide] reads 70 to 99%; that for `Cc1cccc(C(=O)NC23CC4CC(CC(NC(=O)c5ccncc5)(C4)C2)C3)n1` [Example 116, 6-Methyl-pyridine-2-carboxylic acid {3-[(pyridine-4-carbonyl)-amino]-adamantan-1-yl}-amide], 70 to 99%; that for `Cc1cccc(C(=O)NC23CC4CC(CC(NC(=O)c5cc(O)ccn5)(C4)C2)C3)n1` [Example 132, 6-Methyl-pyridine-2-carboxylic acid {3-[(4-hydroxy-pyridine-2-carbonyl)-amino]-adamantan-1-yl}-amide], 70 to 99%.
The result for `Cc1cccc(C(=O)NC23CC4CC(C2)CC(NC(=O)c2cccc(CC#N)n2)(C4)C3)n1` [Example 25, 6-Cyanomethyl-pyridine-2-carboxylic acid {3-[(6-methyl-pyridine-2-carbonyl)-amino]-adamantan-1-yl}-amide] reads 63 to 99%; that for `NC(=O)[C@@H]1CCCN1c1cccc(C(=O)NC23CC4CC(CC(NC(=O)c5ccccn5)(C4)C2)C3)n1` [Example 230, 6-((S)-2-Carbamoyl-pyrrolidin-1-yl)-pyridine-2-carboxylic acid {3-[(pyridine-2-carbonyl)-amino]-adamantan-1-yl}-amide], 63 to 99%.
The same measure for `O=C(NC12CC3CC(C1)CC(NC(=O)c1cn4cc(Cl)ccc4n1)(C3)C2)c1ccccn1` [Example 86, 6-Chloro-imidazo[1,2-a]pyridine-2-carboxylic acid {3-[(pyridine-2-carbonyl)-amino]-adamantan-1-yl}-amide]: 63 to 99%; for `Cc1cccc(C(=O)NC23CC4CC(C2)CC(NC(=O)c2ccnc(C(F)(F)F)n2)(C4)C3)n1` [Example 140, 2-Trifluoromethyl-pyrimidine-4-carboxylic acid {3-[(6-methyl-pyridine-2-carbonyl)-amino]-adamantan-1-yl}-amide]: 70 to 99%.
As to `Cc1cc(C(=O)NC23CC4CC(CC(NC(=O)c5ccccn5)(C4)C2)C3)on1` [Example 78, Pyridine-2-carboxylic acid {3-[(3-methyl-isoxazole-5-carbonyl)-amino]-adamantan-1-yl}-amide], the Emax lay in the range of 63 to 99%.
As to `O=C(NC12CC3CC(C1)CC(NC(=O)c1cccc(NCCO)n1)(C3)C2)c1cccc(F)c1` [Example 212, 6-(2-Hydroxy-ethylamino)-pyridine-2-carboxylic acid [3-(3-fluoro-benzoylamino)-adamantan-1-yl]-amide], the Emax was 63 to 99%.
The same measure for `Cc1cccc(C(=O)NC23CC4CC(C2)CC(NC(=O)c2cn5ccccc5n2)(C4)C3)n1` [Example 52, Imidazo[1,2-a]pyridine-2-carboxylic acid {3-[(6-methyl-pyridine-2-carbonyl)-amino]-adamantan-1-yl}-amide]: 63 to 99%; for `O=C(NC12CC3CC(C1)CC(NC(=O)c1nccc(C(F)(F)F)n1)(C3)C2)c1ccccn1` [Example 113, 4-Trifluoromethyl-pyrimidine-2-carboxylic acid {3-[(pyridine-2-carbonyl)-amino]-adamantan-1-yl}-amide]: 70 to 99%.
With `Cc1cncc(C(=O)NC23CC4CC(CC(NC(=O)c5cc(F)cc(Cl)c5)(C4)C2)C3)n1` [Example 163, 6-Methyl-pyrazine-2-carboxylic acid [3-(3-chloro-5-fluoro-benzoylamino)-adamantan-1-yl]-amide], the Emax lay in the range of 70 to 99%.
The result for `Cc1ccnc(C(=O)NC23CC4CC(C2)CC(NC(=O)c2cccc(C)n2)(C4)C3)c1` [Example 28, 4-Methyl-pyridine-2-carboxylic acid {3-[(6-methyl-pyridine-2-carbonyl)-amino]-adamantan-1-yl}-amide] reads 63 to 99%.
